Test results reported in US20100160369A1, “S1P1 Agonists and Methods of Making And Using” (EXELIXIS, INC., priority 2008, published 2010).

Assays:
Format in all cases: cell-based
S1P1 [1] = target: T1, S1P1 (Homo sapiens, UniProt P21453); experiment: Tango β-arrestin Recruitment Assay in U2OS cells (Assay 2b); parameters: linker with TEV protease (N1a) cleavage site (C); conditions: Tango β-arrestin Recruitment Assay, read-out: Assay 2b EC50
Summary of the method: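 Agonist EC50 from percent activity relative to 1 μM S1P efficacy control, using background-subtracted 460/530 nm emission ratios. Compounds (max 1 μM, ten 3-fold dilutions) incubated overnight at 37 °C with serum-starved S1P1 U2OS reporter cells, followed by 2 h β-lactamase reagent at room temperature.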
Target sequence in this assay (P21453 whole entry): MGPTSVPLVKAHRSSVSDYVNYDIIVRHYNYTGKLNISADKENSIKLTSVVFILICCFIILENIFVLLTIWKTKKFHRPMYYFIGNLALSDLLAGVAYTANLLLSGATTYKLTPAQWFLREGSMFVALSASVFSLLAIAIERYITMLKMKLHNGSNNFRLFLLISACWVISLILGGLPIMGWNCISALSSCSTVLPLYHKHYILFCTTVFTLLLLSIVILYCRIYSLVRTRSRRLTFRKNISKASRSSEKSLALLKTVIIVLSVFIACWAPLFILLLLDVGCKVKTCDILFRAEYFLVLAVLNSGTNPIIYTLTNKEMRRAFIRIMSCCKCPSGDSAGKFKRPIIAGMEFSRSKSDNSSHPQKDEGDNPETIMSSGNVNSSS
Target sequence in this assay (P32121 whole entry partner): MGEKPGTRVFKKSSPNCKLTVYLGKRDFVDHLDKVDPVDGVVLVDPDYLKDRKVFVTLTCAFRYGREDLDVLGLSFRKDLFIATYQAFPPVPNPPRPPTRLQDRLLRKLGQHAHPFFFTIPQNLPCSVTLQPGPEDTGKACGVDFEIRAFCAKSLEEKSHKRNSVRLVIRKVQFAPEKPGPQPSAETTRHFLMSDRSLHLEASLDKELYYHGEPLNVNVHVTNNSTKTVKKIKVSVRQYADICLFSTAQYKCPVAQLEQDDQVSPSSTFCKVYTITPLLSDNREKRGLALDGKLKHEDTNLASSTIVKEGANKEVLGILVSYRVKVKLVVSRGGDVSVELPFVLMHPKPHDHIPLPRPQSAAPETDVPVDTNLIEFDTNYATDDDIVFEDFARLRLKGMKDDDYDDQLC

S1P1 [2] = target: T1, S1P1; experiment: CNG cAMP Assay (Assay 1); parameters: host or cells: HEK293 cells expressing the CNG channel; conditions: read-out: Assay 1 EC50
Summary of the method: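 cAMP-gated CNG membrane-potential read-out (350/590 nm, T90/T0 ratio) in S1P1/CNG HEK293 cells after 90 min with compound plus NECA 500 nM, S1P 10 nM (EC95), Ro 20-1724 25 μM. Ten 3-fold points from 10 μM, 1.8% DMSO; percent activity vs NECA-only control gives EC50.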
Target sequence in this assay (P21453 whole entry): as the sequence (P21453 whole entry) above

S1P1 [3] = target: T1, S1P1; experiment: Tango β-arrestin Recruitment Assay in HEK293 cells (Assay 2a); parameters: linker with TEV protease (N1a) cleavage site (C); host or cells: HEK293, transiently transfected; conditions: Tango β-arrestin Recruitment Assay, read-out: Assay 2a EC50
Summary of the method: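 Agonist-driven β-arrestin2–TEV recruitment releases tTA to drive luciferase in transiently transfected HEK293 cells. Ten 3-fold dilutions from 10 μM top (1% DMSO), 16–18 h at 37 °C; EC50 fitted to percent activity versus DMSO background and 5 μM S1P efficacy control.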
Target sequence in this assay (P21453 whole entry): as above
Target sequence in this assay (P32121 whole entry partner): as the sequence (P32121 whole entry partner) above

Measured: EC50

O=C(O)CCc1cc(Cl)c(-c2noc(-c3cn4cc(C(F)(F)F)cc(Cl)c4n3)n2)cc1F [Entry 24]
≤ 100 nM: all assays above

O=C(O)CCc1cc(Cl)c(-c2noc(-c3cn4cc(C(F)(F)F)cc(Br)c4n3)n2)cc1F [Entry 49]
≤ 100 nM: all assays above

Cc1cc(CCC(=O)O)c(Cl)cc1-c1noc(-c2cn3cc(C(F)(F)F)cc(Cl)c3n2)n1 [Entry 56]
≤ 100 nM: all assays above

C[C@H](CO)Oc1cc(Cl)c(-c2noc(-c3cn4cc(C(F)(F)F)cc(Cl)c4n3)n2)cc1F [Example 93, (2R)-2-[(5-chloro-4-{5-[8-chloro-6-(trifluoromethyl)imidazo[1,2-a]pyridin-2-yl]-1,2,4-oxadiazol-3-yl}-2-fluorophenyl)oxy]propan-1-ol]
≤ 100 nM: all assays above

O=C(O)CCc1cc(Cl)c(-c2nnc(-c3cn4cc(C(F)(F)F)cc(Cl)c4n3)s2)cc1F [Example 176, 3-(5-chloro-4-{5-[8-chloro-6-(trifluoromethyl)imidazo[1,2-a]pyridin-2-yl]-1,3,4-thiadiazol-2-yl}-2-fluorophenyl)propanoic acid]
≤ 100 nM: all assays above

O=C(O)CCc1cc(Cl)c(-c2nnc(-c3cn4cc(C(F)(F)F)cc(Br)c4n3)s2)cc1F [Example 177, 3-(4-{5-[8-bromo-6-(trifluoromethyl)imidazo[1,2-a]pyridin-2-yl]-1,3,4-thiadiazol-2-yl}-5-chloro-2-fluorophenyl)propanoic acid]
≤ 100 nM: all assays above

OCC(O)COc1cc(Cl)c(-c2noc(-c3cn4cc(C(F)(F)F)cc(Cl)c4n3)n2)cc1Cl (stereo not drawn) [Example 208, 3-[(2,5-dichloro-4-{5-[8-chloro-6-(trifluoromethyl)imidazo[1,2-a]pyridin-2-yl]-1,2,4-oxadiazol-3-yl}phenyl)oxy]propane-1,2-diol]
≤ 100 nM: all assays above

O=C(O)CCc1cc(Cl)c(-c2nc(-c3cn4cc(C(F)(F)F)cc(Cl)c4n3)no2)cc1F [Example 233, 3-(5-chloro-4-{3-[8-chloro-6-(trifluoromethyl)imidazo[1,2-a]pyridin-2-yl]-1,2,4-oxadiazol-5-yl}-2-fluorophenyl)propanoic acid]
≤ 100 nM: all assays above

O=C(O)CCc1cc(Cl)c(-c2noc(-c3cn4cc(C(F)(F)F)cc(Cl)c4n3)n2)cc1Cl [Example 242, 3-(2,5-dichloro-4-{5-[8-chloro-6-(trifluoromethyl)imidazo[1,2-a]pyridin-2-yl]-1,2,4-oxadiazol-3-yl}phenyl)propanoic acid]
≤ 100 nM: all assays above

OCCOc1cc(Cl)c(-c2noc(-c3cn4cc(C(F)(F)F)cc(Cl)c4n3)n2)cc1F [Example 263, 2-[(5-chloro-4-{5-[8-chloro-6-(trifluoromethyl)imidazo[1,2-a]pyridin-2-yl]-1,2,4-oxadiazol-3-yl}-2-fluorophenyl)oxy]ethanol]
≤ 100 nM: all assays above

CC(C)Oc1cc(Cl)c2nc(-c3nc(-c4cc(F)c(CCC(=O)O)cc4Cl)no3)cn2c1 [Example 301, 3-[5-chloro-4-(5-{8-chloro-6-[(1-methylethyl)oxy]imidazo[1,2-a]pyridin-2-yl}-1,2,4-oxadiazol-3-yl)-2-fluorophenyl]propanoic acid]
≤ 100 nM: all assays above

O=C(O)CCc1cc(Cl)c(-c2noc(-c3cn4cc(I)cc(Cl)c4n3)n2)cc1F [Example 302, 3-{5-chloro-4-[5-(8-chloro-6-iodoimidazo[1,2-a]pyridin-2-yl)-1,2,4-oxadiazol-3-yl]-2-fluorophenyl}propanoic acid]
≤ 100 nM: all assays above
